Measured values published in patent publication US20230046998A1, “COMPOSITION FOR PREVENTING OR TREATING KELOID” (CHUNGNAM NATIONAL UNIVERSITY HOSPITAL, priority 2021, published 2023).

Experiments:
[1] = tested on: keloid pathway markers p-SMAD2/3 and TGFβ1; assay: Western blotting of keloid pathway markers in fibroblasts; format: cell-based, human; settings: significant difference in keloid-derived versus normal skin-derived fibroblasts (FIG. 5D)
Description: Tissues were homogenized using a TissueLyzer II (Qiagen, Hilden, Germany). Cells and tissues were lysed in RIPA buffer (30 mM Tris [pH 7.5], 150 mM sodium chloride, 1 mM sodium phenylmethylsulfonyl fluoride, 1 mM sodium orthovanadate, 1% Nonidet P-40, 10% glycerol, phosphatase and protease inhibitors). Western blot analysis was performed with 40 μg of protein using a commercially available antibody. Anti-CHOP, anti-pERK, anti-ERK, anti-IRE1α, anti-pIRE1α, anti-pSMAD2/3 and anti-β-actin antibodies were purchased from Cell Signaling Technology (Beverly, Mass., USA). Anti-COL1A1, anti-ATF4, anti-TGFβ1, anti-IL-1 antibodies and secondary antibodies were purchased from Santa Cruz Biotechnology (Santa Cruz, Calif., USA) was used. Immune response bands were visualized by enhanced chemiluminescence (ECL) (Bio-Rad, Hercules, Calif., USA), and images were scanned using an Odyssey imaging system and quantified using Image Studio Digits (LI-COR Biosciences, Lincoln, Nebr., USA).
Human keloid-derived fibroblasts and normal skin-derived fibroblasts were cultured in Dulbecco's modified Eagle's medium (DMEM; Invitrogen), 10% fetal bovine serum (FBS; Hyclone, Logan, Utah, USA), 100 U/mL penicillin and 100 µg/mL streptomycin (Invitrogen) media at 5% CO2. […]
(§1) After treatment with TUDCA, the viability of human keloid tissue-derived fibroblasts and normal skin tissue-derived fibroblasts was evaluated.

[2] = tested on: COL1A2 and ER stress-related gene expression in human keloid tissue-derived fibroblasts; assay: COL1A2 and ER stress-related gene expression in TUDCA-treated keloid fibroblasts; format: cell-based; settings: TUDCA-treated human keloid tissue-derived fibroblasts (FIG. 5B)
[3] = tested on: normal skin tissue-derived fibroblasts; assay: Cell viability of normal skin tissue-derived fibroblasts after TUDCA treatment (WST-1); format: cell-based, human; settings: 12 hours after exposure to TUDCA; smaller effect than in keloid fibroblasts (FIG. 5C)
Description: (§2) Human keloid-derived fibroblasts and normal skin-derived fibroblasts were cultured in Dulbecco's modified Eagle's medium (DMEM; Invitrogen), 10% fetal bovine serum (FBS; Hyclone, Logan, Utah, USA), 100 U/mL penicillin and 100 µg/mL streptomycin (Invitrogen) media at 5% CO2. Keloid-derived fibroblasts are placed 1×10^4/well on 96-well plates, after treatment with tauroursodeoxycholic acid (TUDCA; Merck Millipore, Billerica, Mass., USA) for 24 hours, cell proliferation was measured with an enzyme-linked immunosorbent assay reader using a 450 nm WST-1 (Roche Diagnostics Corporation, Indianapolis, Ind., USA) assay.
as §1

[4] = tested on: rabbit ear scar (keloid animal model); assay: Rabbit ear scar model, intralesional injection; format: in vivo, New Zealand white rabbit
Description: Animal studies were performed with the approval of the Preclinical Research Center (CNUH-019-A0079) of Chungnam National University Hospital. A 12-month-old female New Zealand white rabbit weighing about 4 kg was purchased from Damul Science (Daejeon, Korea), and all rabbits were kept individually in cages and received humane care according to institutional guidelines. After anesthetizing rabbits with a mixture of ketamine (60 mg/kg) and xylazine (5 mg/kg), the side ear hairs were shaved, disinfected with povidone-iodine, and then anesthetized. Next, after using a 10 mm biopsy punch to make 2 circular wounds with a diameter of 10 mm on the ventral surface of each ear, and covering the wound with an adhesive polyurethane dressing (Tegaderm; 3M, Minneapolis, Minn., USA), and once a day, the wound areas were disinfected with physiological saline and observed, and the adhesive polyurethane dressing was replaced. After wound formation, a simple dressing was maintained for 20 days to form a thick scar tissue, and on days 20 and 25 after wounding, saline, steroid (10 mg/mL) or TUDCA (10 mg/mL) was administered to the dermal region of the rabbit ear scar using a 30-gauge syringe (FIG. 1).
6. Scar Elevation Index (SEI) Calculation (Methods for Evaluating Keloid Tissue) SEI gives the ratio of total hypertrophic scar area to normal tissue present beneath the scar. In the present invention, the region where the cartilage layer is left as it is and the skin layer is excised is the B region. Area A contains an excessive amount of soft tissue compared to the surrounding normal dermal layer. An SEI greater than 1 indicates the formation of hypertrophic scars, keloids (FIG. 2).
Next, the efficacy of TUDCA for keloid improvement in a rabbit ear scar model was investigated.
On days 20 and 25 after wounding, normal saline (NS), steroids (10 mg/mL) or TUDCA (10 mg/mL) were injected into the scar dermis.

[5] = tested on: human keloid tissue-derived fibroblasts; assay: Cell viability of human keloid tissue-derived fibroblasts after TUDCA treatment (WST-1); format: cell-based; settings: 6 hours, 12 hours, and 24 hours after TUDCA treatment (FIG. 5A)
Description: as §2, §1

## C[C@H](CCC(=O)NCCS(=O)(=O)O)[C@H]1CC[C@H]2[C@@H]3[C@@H](O)C[C@@H]4C[C@H](O)CC[C@]4(C)[C@H]3CC[C@]12C [TUDCA, tauroursodeoxycholic acid]
[1]
  level of TGFβ1: reduced
  level of p-SMAD2/3: reduced
[2]
  COL1A2 gene expression level: significantly reduced
  ER stress-related gene expression levels: significantly reduced
[3]
  viability of normal skin tissue-derived fibroblasts: decreased
[4]; 10 mg/mL injected into scar dermis on days 20 and 25 after wounding, compared with saline group (FIG. 7)
  gross appearance / healing of rabbit ear scars: healed better
[4]; 10 mg/mL intralesional, days 20 and 25, control group 2.778±0.346, p=0.0263 steroid, p=0.0098 TUDCA vs control
  Scar Elevation Index (SEI): 1.586±0.074
[4]; 10 mg/mL intralesional, days 20 and 25, tissue collected day 34, compared to saline group (FIG. 8)
  irregular fiber deposition in scar tissue (H&E): significantly reduced
[4]; rabbit ear scar model, p=0.0215
  decrease in SEI compared with the steroid group: significantly greater decrease
[5]
  cell viability: significantly decreased
